# According to patent publication US20250295583A1, “INHALED HEDGEHOG INHIBITORS” (WBX PHARMA, INC., priority 2024, published 2025):
# Values joined by “and” are separate entries in the source; they are usually repeats but may differ in a detail not shown here. Equal entries are not always repeated.
# Legend:
# [1] = type: physicochemical
# Description: Four dry powder formulations were developed using spray drying with two being acceptable for human use. […] The selected bulking agents were mannitol or trehalose with dispersibility enhancer: L-leucine (˜0.55 wt % solubility limit in 50:50 EtOH: water). Two mannitol formulations and two trehalose formulations with different amounts of L-leucine 10% and 26% were made using a BLD-35 spray dryer. The tested dose was 10 mg of the formulation in a Berry RSO1 high resistance inhaler.
# [2] = tested on: IPF; conditions: given orally alone as a monotherapy; cited from earlier work
# [3] = Published pharmacokinetics of oral vismodegib; type: in vivo, human; conditions: once daily oral therapy
# Text: Only unbound drug can freely cross the alveolar epithelial barrier.
# [4] = cited from earlier work
# [5] = tested on: IPF patients; conditions: 21 IPF patients, cited from earlier work; for patients who discontinued the drug: combination trial of vismodegib plus pirfenidone
# [6] = Estimate of epithelial lining fluid (ELF) concentration after inhaled delivery, from pirfenidone data; parameters: species or system human; conditions: for predicted ELF concentration adjusted for 200 μg delivery: inhaled dry powder, 200 μg delivered; for predicted ELF molar concentration if 45 mg delivered: inhaled, extrapolated from pirfenidone data
# Description: The physical delivery of any drug by the inhalation route may be estimated by data generated in the delivery of inhaled pirfenidone.
# Again, since delivery is just a physical process, one can estimate ELF concentrations for 200 μg of taladegib delivered as noted above based on pirfenidone data.
# [7] = Accumulation factor calculation at steady state; conditions: half-life 3 days, dosing interval 1 day, first-order kinetics
# Text: This calculation assumes the API is being administered in a clinically effective formulation as disclosed herein, at regular intervals, and that the pharmacokinetics of the candidate compound follow first-order kinetics where the rate of drug elimination is proportional to its concentration. To calculate the multiple of the initial drug concentration at steady state (known as the “accumulation factor”), the formula:
# Substitute into the formula: With τ=1 day: AF=1/(1−e^(−0.231*1))≈1/(1−e^(−0.231)).
# Evaluate the exponential: e^(−0.231)≈0.794.
# [8] = 150 mg daily oral dose, cited from earlier work
# [9] = Estimate of systemic exposure after inhaled dosing versus oral dose; parameters: species or system human
# Description: This would be about 6 half-lives. Depending on the half-life in the epithelial lining fluid, one to six inhalations a day would provide adequate inhibition of hedgehog receptors. At the highest dose frequency (6 inhalations/day), the total delivered dose would approximate 3.6 mg.
# [10] = cited from earlier work; remark: listed apart in the source
# [11] = tested on: subjects with mild to moderate IPF; conditions: cited from earlier work
# [12] = cited from earlier work; remark: listed apart in the source
smiles,measurement,setting,value
CC(C)C[C@H](N)C(=O)O [L-leucine],solubility limit in 50:50 EtOH: water,[1],~0.55 wt %
COC(=O)c1ccc2c(c1)NC(=O)/C2=C(\Nc1ccc(N(C)C(=O)CN2CCN(C)CC2)cc1)c1ccccc1 [nintedanib],slowing of the progression of the disease,[2],about 50%
"CS(=O)(=O)c1ccc(C(=O)Nc2ccc(Cl)c(-c3ccccn3)c2)c(Cl)c1 [vismodegib, Vismodegib]",amount dissolved in 50:50 EtOH: water (wt/wt) solution,[1]; 50:50 EtOH: water (wt/wt),4%
same,"plasma concentration nadir, of the peak",[3],about 80%
same,plasma protein bound,[4],98%
same,"plasma protein binding, in words",[4]; to albumin and alpha-1 acid glycoprotein,highly protein-bound
same,patients who discontinued the drug,[5],42.9%
same,lung function and shortness of breath,"[5]; vismodegib 150 mg daily plus pirfenidone 801 mg three times daily, 24 weeks, on average",improved
same,patients reporting at least one treatment-emergent adverse event,"[5]; vismodegib 150 mg daily plus pirfenidone, 24 weeks",all patients
same,predicted ELF concentration adjusted for 200 μg delivery,[6],1.71 µmol/L
same,predicted ELF molar concentration if 45 mg delivered,[6],388 µmol/L
same,"accumulation factor, steady state concentration versus after the first dose",[7],about 4.85 times
same,mean unbound concentration,[8]; steady state,0.109 ± 0.058 µmol/L
same,peak plasma concentration at steady state,[8],22.6 ± 10.8 µmol/L
same,total systemic exposure,[9]; six administrations a day of a 30 mg capsule (delivered dose 600 μg each),3.6 mg
"CN(C(=O)c1ccc(F)cc1C(F)(F)F)C1CCN(c2nnc(-c3ccnn3C)c3ccccc23)CC1 [taladegib, Taladegib]",plasma protein bound,[4],95%
same,mean concentration at steady state,[10]; 200 mg daily oral dose,about 0.8 μmol/L
same,absorption,[10]; 200 mg oral dose,approximately 30%
same,ELF concentration versus that achieved by 200 mg oral dose of taladegib (unbound),[6]; 200 μg inhaled delivered dose,≈ 29 fold and > 29 fold
same,predicted ELF concentration adjusted for 200 μg delivery,[6],1.16 µmol/L
same,predicted ELF molar concentration if 45 mg delivered,[6],264 µmol/L
same,systemic exposure/absorption relative to the oral dose,"[9]; six inhalations a day, total 3.6 mg",less than 10%
same,alopecia,[11]; oral taladegib group,52%
same,dysgeusia,[11]; oral taladegib group,57%
same,muscle spasms,[11]; oral taladegib group,43%
same,lung fibrosis by high resolution CT scan,[11]; oral taladegib versus slight increase in placebo group,decreased lung fibrosis
same,improvement in FVC,"[11]; oral taladegib, at 12 weeks, on average, placebo 1.3% loss (p=0.035)",1.9%
Cc1ccc(=O)n(-c2ccccc2)c1 [pirfenidone],amount delivered to the lung,"[12]; 100 mg dose in the nebulizer, 24 hour urine analysis",45 mg
same,epithelial lining fluid concentration,"[12]; aerosolized, normal volunteers, average",135 µg/mL
same,patients who discontinued the drug,[5],33.3%
same,slowing of the progression of the disease,[2],about 50%
